This is an account of results in paper PMC12543283, “TastepepAI: An artificial intelligence platform for taste peptide de novo design” (PLOS Computational Biology, 2025).

Data set [1] can be described thus: Electronic tongue analysis (Taste-Sensing System SA 402B). Also noted: unit not given here. The note with it: reference solution 30 mM KCl + 0.3 mM tartaric acid as baseline, first measurement excluded; for Umami: sensor AAE; for Umami / Bitter / Sweet: detection threshold 0, room temperature; for Umami / Bitter / Sour / Salty: four replicates; for Sour: detection threshold -13, room temperature; for Salty: detection threshold -6, room temperature; for Sweet: measured five times. Put shortly: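 Room-temperature electronic-tongue readings with five taste probes, calibrated against a reference of 30 mM KCl and 0.3 mM tartaric acid. Samples at 0.1 mg/mL and 1.0 mg/mL were measured four times, sweetness five times, and the first run was dropped. Detection cut-offs were sour −13, salty −6, others 0.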

Data set [2] has as its system red blood cells from 6-week-old BALB/c mice (mRBCs). The data set can be described thus: Hemolysis assay. The class given is cell-based, mouse. As to conditions: mean of Data1-3; 100 μM peptide, 1.5 × 10^8 cells/mL mRBCs, 37°C, 60 min, absorbance 490 nm; PBS 0% and 1% Triton X-100 100% controls. The protocol:
The hemolytic activity of synthetic peptides was evaluated using red blood cells from 6-week-old BALB/c mice (mRBCs). Freshly isolated mRBCs were washed three times with PBS buffer (8000 rpm, 2 min per wash) to prepare the mRBC suspension. Equal volumes (70 μL) of 200 μM peptide solutions and mRBC suspension were mixed to achieve final concentrations of 100 μM peptide and 1.5 × 10^8 cells/mL mRBCs in the reaction system. After incubation with shaking at 37°C for 60 min, samples were centrifuged at 10000 rpm for 5 min, and hemoglobin release was assessed by measuring the absorbance of the supernatant at 490 nm. PBS and 1% Triton X-100 treatments served as 0% and 100% hemolysis controls, respectively. A complete dataset of hemolytic activity measurements is documented in S4 Data.

Data set [3] concerns human pancreatic ductal epithelial cells (HPNE). The data set can be described thus: Cell viability assessment (CCK-8), HPNE. As to conditions: CCK-8, mean of Data1-3 (n = 3).
For data set [4], the system named is human umbilical vein endothelial cells (HUVEC). The data set is described as follows: Cell viability assessment (CCK-8), HUVEC. As to conditions: CCK-8, mean of Data1-3 (n = 3).
The test system of data set [5] is human bronchial epithelial cells (BEAS-2B). The data set is described as follows: Cell viability assessment (CCK-8), BEAS-2B. The note with it: BEAS-2B cells, CCK-8, mean of Data1-3 (n = 3).
For data set [6], the system named is human embryonic kidney cells (HEK293T). The data set can be described thus: Cell viability assessment (CCK-8), HEK293T. The note with it: CCK-8, mean of Data1-3 (n = 3).
For data set [7] the following is noted: known from earlier studies; cited from earlier work. An excerpt: To address these experimental challenges, various computational and artificial intelligence-based approaches for taste peptide identification have emerged. Most reported methods focus on predicting single taste properties, such as BERT4Bitter and iBitter-SCM [42] for bitter peptide identification, while iUmami-SCM [43], Umami-MRNN [[44], iUmami-DRLF [45], and Umami-gcForest are dedicated to umami peptide prediction. Additionally, a few models like Umami_YYDS [35] have been reported to perform binary classification for umami and bitter tastes. However, current methodologie ...

Data set [8] concerns human bronchial epithelial cells (BEAS-2B).
Data set [9] has as its system human embryonic kidney cells (HEK293T).
In data set [10] the test system is human pancreatic ductal epithelial cells (HPNE).
The subject of data set [11] is human umbilical vein endothelial cells (HUVEC).

Read-outs that look alike come from different tables or passages of the source. Ends that are not written are not given here.

Consider EPDDPDD [TaPep27], for which the results for the Umami in data set [1] (peptide 0.1 mg/mL) and in data set [1] (peptide 1 mg/mL) were 0.54 and -6.01, respectively. The Bitter in data set [1] (sensor C00, peptide 0.1 mg/mL) amounted to 7.42; in [1] (sensor C00, peptide 1 mg/mL), 3.79. Also, the Sour in data set [1] (sensor CA0, peptide 0.1 mg/mL) is -0.70; in [1] (sensor CA0, peptide 1 mg/mL) it was 14.83. In addition, the Salty in [1] (sensor CT0, peptide 0.1 mg/mL) is recorded as -22.39; in data set [1] (sensor CT0, peptide 1 mg/mL), 8.93. Besides, the Sweet is 3.39 in data set [1] (sensor GL1, peptide 0.1 mg/mL) and -6.25 in [1] (sensor GL1, peptide 1 mg/mL). Moreover, the Average hemolysis in data set [2] is on record as 1.02%. In data set [3], the “Average cell viability, HPNE” value is recorded as 91.58. In addition, in data set [4], the “Average cell viability, HUVEC” value came out at 94.52. Besides, in [5], the “Average cell viability, BEAS-2B” value is given as 105.85. Also, in data set [6], the “Average cell viability, HEK293T” value is 98.49.
For the substance KGDEESLA, the taste characteristics result in data set [7] is “both umami and bitter characteristics”.
As for YGRGV [TaPep12], the Umami in [1] (peptide 0.1 mg/mL) came to 3.01. Also, in data set [1] (peptide 1 mg/mL), the Umami is recorded as -2.86. Moreover, the Bitter in data set [1] (sensor C00, peptide 0.1 mg/mL) is 8.03. The Bitter in data set [1] (sensor C00, peptide 1 mg/mL) is 0.75. In data set [1] (sensor CA0, peptide 0.1 mg/mL), the Sour is -6.74. Also, the Sour in [1] (sensor CA0, peptide 1 mg/mL) came to 6.59. Also, the Salty in data set [1] (sensor CT0, peptide 0.1 mg/mL) is recorded as -17.83. The Salty in data set [1] (sensor CT0, peptide 1 mg/mL) is given as 7.54. In [1] (sensor GL1, peptide 0.1 mg/mL), the Sweet is recorded as 7.49. The Sweet in data set [1] (sensor GL1, peptide 1 mg/mL) is listed as -7.92. Moreover, the Average hemolysis in [2] is 0.43%. For the same substance, in [8], the “Average cell viability, BEAS-2B” value turned out to be 99.57; the “Cell viability, BEAS-2B, Data1” value was 102.99; the “Cell viability, BEAS-2B, Data2” value amounted to 93.52; the “Cell viability, BEAS-2B, Data3” value amounted to 102.19. Besides, in data set [9], the “Average cell viability, HEK293T” value amounted to 102.93; the “Cell viability, HEK293T, Data1” value came out at 99.46; the “Cell viability, HEK293T, Data2” value was determined as 109.02; the “Cell viability, HEK293T, Data3” value turned out to be 100.32. In addition, in [10], the “Average cell viability, HPNE” value is on record as 102.90; the “Cell viability, HPNE, Data1” value came to 110.82; the “Cell viability, HPNE, Data2” value was 91.75; the “Cell viability, HPNE, Data3” value is given as 106.12. Also, in data set [11], the “Average cell viability, HUVEC” value was determined as 94.89; the “Cell viability, HUVEC, Data1” value was determined as 90.77; the “Cell viability, HUVEC, Data2” value is reported as 98.75; the “Cell viability, HUVEC, Data3” value stood at 95.16.
YKYHES [TaPep13]: the results for the Umami in [1] (peptide 0.1 mg/mL) and in data set [1] (peptide 1 mg/mL) were 1.81 and -4.92, respectively. Also, the Bitter in [1] (sensor C00, peptide 0.1 mg/mL) is on record as 7.46; in data set [1] (sensor C00, peptide 1 mg/mL), -0.78. In addition, the Sour in data set [1] (sensor CA0, peptide 0.1 mg/mL) was -3.77; in data set [1] (sensor CA0, peptide 1 mg/mL), 12.34. Also, the Salty in data set [1] (sensor CT0, peptide 0.1 mg/mL) is -15.97; in [1] (sensor CT0, peptide 1 mg/mL) it was 15.30. The Sweet in data set [1] (sensor GL1, peptide 0.1 mg/mL) is reported as 3.50; in data set [1] (sensor GL1, peptide 1 mg/mL) it was -4.65. The Average hemolysis in data set [2] is on record as 1.05%. Further, the “Average cell viability, HPNE” value in data set [3] is reported as 99.43. For the same substance, the “Average cell viability, HUVEC” value in [4] turned out to be 104.44. Moreover, the “Average cell viability, BEAS-2B” value in [5] is recorded as 101.89. In addition, the “Average cell viability, HEK293T” value in data set [6] is 95.55.
